The results in this text go back to US20020022746A1, “Method for the crystallization of iopamidol” (priority 1998, published 2002).

The data set can be described thus: Solubility of Iopamidol plotted against reflux time (FIG. 1). It counts as physicochemical. The method, then: With reference to FIG. 1, there is a graph showing the solubility of Iopamidol plotted against reflux time when a ratio of Iopamidol:water:ethanol 4:1:8 (w/v/v) is used in accordance with the method of the present invention. As shown in this graph, the reflux for 4 hours or greater allows the crystallized Iopamidol to have a solubility of 80% or greater. […] Because Iopamidol monohydrates or pentahydrates are of about 50% solubility, the method of the present invention can convert Iopamidol monohydrates or pentahydrates into Iopamidol anhydrides.
FIG. 1 is a graph showing the solubility change of the Iopamidol with reflux time.

Take `C[C@H](O)C(=O)Nc1c(I)c(C(=O)NC(CO)CO)c(I)c(C(=O)NC(CO)CO)c1I` [Iopamidol monohydrates, Iopamidol]: for the setting “hydrated crystalline forms”, the solubility entry is “about 50%”.

As to `C[C@H](O)C(=O)Nc1c(I)c(C(=O)NC(CO)CO)c(I)c(C(=O)NC(CO)CO)c1I` [Iopamidol], the solubility (crystallized Iopamidol, Iopamidol:water:ethanol 4:1:8 (w/v/v), reflux for 4 hours or greater) was no less than 80%.
